Consider 22 compounds from patent publication US10633375B2, “Oxopicolinamide derivative, preparation method therefor and pharmaceutical use thereof” (Jiangsu Hengrui Medicine Co., Ltd., priority 2016, dated 2020).

In one experiment the test system is human blood. Nature of the experiment: In vitro anticoagulant effect on human blood (APTT, CT2). The note with it: concentration corresponding to 2 times the APTT of the blank control, human plasma. As to the method: Test Example 2: Determination of In Vitro Anticoagulant Effect of the Compounds of the Present Invention on Human Blood
1. Experimental Materials
Plasma: Human blood was collected in blood collection tubes containing no anticoagulant, and then 3.8% sodium citrate (volume ratio 1:9) was added. The tubes were centrifuged at 2500 rpm for 10 minutes at room temperature, and then the plasma was collected and stored at −80° C.;
Reagents: APTT reagent (Activated partial thromboplastin time assay kit, SIEMENS, Art. No. B4218-1), calcium chloride solution;
Instrument: Coagulation instrument (SYSMEX, CA-500).
The divided plasma was melted at room temperature and mixed well. 10000 μM the test compound dissolved in 100% DMSO was diluted to 3000, 300, 200, 150, 75, 30, 10, 3, 0.3 μM with 100% DMSO, and the blank was 100% DMSO. The reagent, plasma, and compound were placed in corresponding positions in the coagulation instrument, and APTT detection of the compound was carried out.
Curve fitting was carried out by graphpad and CT2 was calculated, i.e., the concentration of the compound corresponding to 2 times the APTT of the blank control.

Experiment [1] concerns the target Coagulation Factor XIa protease (Homo sapiens (Human), UniProt P03951). Nature of the experiment: Inhibition of Factor XIa detected by absorption photometry. It is filed as biochemical. The note with it: absorbance at 405 nm, 10 minutes at 37° C. In short, it runs like this: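 Read-out was absorbance at 405 nm after 10 min incubation at 37° C. Compound dilutions in 100% DMSO (200 to 0.002 μM) were combined with FXIa (2.5 μg/ml solution), then FXIa-specific chromogenic substrate (2 mM solution) was added; both are stock concentrations, not final.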

The structures appear in SMILES notation. Bounds are passed on as bounds.

Coagulation Factor XIa protease, sequence (P03951 388-625): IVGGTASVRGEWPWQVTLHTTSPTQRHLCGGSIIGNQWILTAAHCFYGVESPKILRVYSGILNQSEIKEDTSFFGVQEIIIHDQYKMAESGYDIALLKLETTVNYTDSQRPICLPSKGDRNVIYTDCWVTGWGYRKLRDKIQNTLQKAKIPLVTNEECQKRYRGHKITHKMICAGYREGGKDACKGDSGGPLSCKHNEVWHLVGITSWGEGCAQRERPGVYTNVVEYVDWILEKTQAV
Coagulation Factor XIa protease, sequence (P03951 19-387 partner): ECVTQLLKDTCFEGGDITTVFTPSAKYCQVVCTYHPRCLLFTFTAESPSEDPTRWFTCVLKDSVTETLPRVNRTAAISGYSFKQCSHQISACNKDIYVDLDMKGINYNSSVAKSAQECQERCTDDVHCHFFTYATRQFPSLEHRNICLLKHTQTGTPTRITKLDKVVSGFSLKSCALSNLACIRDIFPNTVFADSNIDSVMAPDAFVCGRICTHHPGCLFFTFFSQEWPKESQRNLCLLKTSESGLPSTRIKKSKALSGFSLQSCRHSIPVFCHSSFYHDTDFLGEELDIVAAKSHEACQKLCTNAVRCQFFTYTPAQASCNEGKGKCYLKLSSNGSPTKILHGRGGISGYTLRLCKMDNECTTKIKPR

With `CCNC(=O)c1ccc(NC(=O)[C@H](Cc2ccccc2)n2cc(OC)c(-c3cc(Cl)ccc3C(C)=O)cc2=O)cc1` [Example 37, (S)-4-(2-(4-(2-acetyl-5-chlorophenyl)-5-methoxy-2-oxopyridin-1 (2H)-yl)-3-phenylpropanamido)-N-ethylbenzamide], the “CT2, concentration doubling APTT” value in the experiment with human blood (Table 2) was determined as 7.8 µM. In addition, it took 29 nM to reach half-maximal inhibition in experiment [1] (IC50).

Take `COc1cn(C(Cc2ccccc2)C(=O)Nc2ccc(C(=O)O)cc2)c(=O)cc1-c1cc(Cl)ccc1C(=O)CC1CC1` (stereo not drawn) [Example 39, 4-(2-(4-(5-chloro-2-(2-cyclopropylacetyl)phenyl)-5-methoxy-2-oxopyridin-1(2H)-yl)-3-phenylpropanamido)benzoic acid]: the “CT2, concentration doubling APTT” value with human blood (Table 2) came to 8.3 µM. The concentration for half-maximal inhibition (IC50) – broadly, the point on the concentration scale where inhibition reaches its midpoint – in experiment [1] was 38 nM.

For the compound `COCCC(C(=O)Nc1ccc2[nH]c(C(=O)O)cc2c1)n1cc(OC)c(-c2cc(Cl)ccc2C(C)=O)cc1=O` (stereo not drawn) [Example 1, 5-(2-(4-(2-acetyl-5-chlorophenyl)-5-methoxy-2-oxopyridin-1(2H)-yl)-4-methoxybutanamido)-1H-indole-2-carboxylic acid], the “CT2, concentration doubling APTT” value in the experiment on human blood (Table 2) is 4.4 µM. In experiment [1], this compound displayed an IC50 of 34 nM.

Take `CCC(=O)c1ccc(Cl)cc1-c1cc(=O)n(C(Cc2ccccc2)C(=O)Nc2ccc(C(=O)O)cc2)cc1OC` (stereo not drawn) [Example 8, 4-(2-(4-(5-chloro-2-propionylphenyl)-5-methoxy-2-oxopyridin-1(2H)-yl)-3-phenylpropanamido)benzoic acid]: the “CT2, concentration doubling APTT” value with human blood (Table 2) was 6.4 µM. This compound also displayed an IC50 in experiment [1] of 17 nM.

Consider `CCC(=O)c1ccc(Cl)cc1-c1cc(=O)n(C(Cc2ccn(C)n2)C(=O)Nc2ccc(C(=O)O)cc2)cc1OC` (stereo not drawn) [Example 99, 4-(2-(4-(5-chloro-2-propionylphenyl)-5-methoxy-2-oxopyridin-1(2H)-yl)-3-(1-methyl-1H-pyrazol-3-yl)propanamido)benzoic acid], for which the “CT2, concentration doubling APTT” value in the experiment on human blood (Table 2) stood at 3.5 µM. In experiment [1], this compound registered an IC50 of 29 nM.

In the case of `COCC[C@@H](C(=O)Nc1ccc2[nH]c(C(=O)O)cc2c1)n1cc(OC)c(-c2cc(Cl)ccc2C(C)=O)cc1=O` [Example 2, (S)-5-(2-(4-(2-acetyl-5-chlorophenyl)-5-methoxy-2-oxopyridin-1(2H)-yl)-4-methoxybutanamido)-1H-indole-2-carboxylic acid], in the experiment on human blood (Table 2), the “CT2, concentration doubling APTT” value stood at 2.9 µM. In experiment [1], this compound registered an IC50 of 19 nM.

In the case of `COc1cn([C@@H](Cc2cnn(C)c2)C(=O)Nc2ccc(C(=O)O)cc2)c(=O)cc1-c1cc(Cl)ccc1C(C)=O` [Example 105, (S)-4-(2-(4-(2-acetyl-5-chlorophenyl)-5-methoxy-2-oxopyridin-1(2H)-yl)-3-(1-methyl-1H-pyrazol-4-yl)propanamido)benzoic acid], the “CT2, concentration doubling APTT” value in the experiment on human blood (Table 2) is 6.9 µM. In experiment [1], this compound yielded a concentration for half-maximal inhibition (IC50) of 30 nM.

As for `COc1cn(C(Cc2ccn(C3CC3)n2)C(=O)Nc2ccc3nn(C)cc3c2)c(=O)cc1-c1cc(Cl)ccc1C(C)=O` (stereo not drawn) [Example 97, 2-(4-(2-acetyl-5-chlorophenyl)-5-methoxy-2-oxopyridin-(2H)-yl)-3-(l-cyclopropyl-1H-pyrazol-3-yl)-N-(2-methyl-2H-indazol-5-yl)propanamide], in the experiment on human blood (Table 2), the “CT2, concentration doubling APTT” value came out at 5.4 µM. Moreover, in experiment [1], 36 nM corresponded to half-maximal inhibition (IC50).

Take `COc1cn(C(Cc2ccn(C3CC3)n2)C(=O)Nc2ccc(C(=O)O)cc2)c(=O)cc1-c1cc(Cl)ccc1C(C)=O` (stereo not drawn) [Example 93, 4-(2-(4-(2-acetyl-5-chlorophenyl)-5-methoxy-2-oxopyridin-1(2H)-yl)-3-(1-cyclopropyl-1H-pyrazol-3-yl)propanamido)benzoic acid]: in the experiment on human blood (Table 2), the “CT2, concentration doubling APTT” value worked out at 2.9 µM. Further, in experiment [1], the IC50 came out at 42 nM.

For `COc1cn([C@H](Cc2ccccn2)C(=O)Nc2ccc(C(=O)O)cc2)c(=O)cc1-c1cc(Cl)ccc1C(C)=O` [Example 81, (R)-4-(2-(4-(2-acetyl-5-chlorophenyl)-5-methoxy-2-oxopyridin-1(2H)-yl)-3-(pyridin-2-yl)propanamido)benzoic acid], the “CT2, concentration doubling APTT” value in the experiment on human blood (Table 2) was over 10000 µM. In experiment [1], this compound showed an IC50 of 2680 nM.

As to `COc1cn([C@@H](CCOC(C)(C)C)C(=O)Nc2ccc3nccnc3c2)c(=O)cc1-c1cc(Cl)ccc1-c1nc(C)no1` [Comparative Example 2, (S)-4-(tert-butoxy)-2-(4-(5-chloro-2-(3-methyl-1,2,4-oxadiazol-5-yl)phenyl)-5-methoxy-2-oxopyridin-1 (2H)-yl)-N-(quinoxalin-6-yl)butanamide, reference compound], the “CT2, concentration doubling APTT” value in the experiment with human blood (Table 3 comparison) is 13.1 µM.

`[2H]C([2H])([2H])Oc1cn([C@@H](Cc2ccccc2)C(=O)Nc2ccc(C(=O)O)cc2)c(=O)cc1-c1cc(Cl)ccc1C(C)=O` [Example 179, 4-[[(2S)-2-[4-(2-acetyl-5-chloro-phenyl)-2-oxo-5-(trideuteromethoxy)-1-pyridyl]-3-phenyl-propionyl]amino]benzoic acid]: in the experiment with human blood (Table 2), the “CT2, concentration doubling APTT” value was found to be 3.3 µM.

As for `[2H]c1c([2H])c([2H])c(C([2H])([2H])[C@@H](C(=O)Nc2ccc(C(=O)O)cc2)n2cc(OC)c(-c3cc(Cl)ccc3C(C)=O)cc2=O)c([2H])c1[2H]` [Example 181, 4-[[(2S)-2-[4-(2-acetyl-5-chloro-phenyl)-5-methoxy-2-oxo-1-pyridyl]-3,3-dideutero-3-(2,3,4,5,6-pentadeuterophenyl)propionyl]amino]benzoic acid], in the experiment with human blood (Table 2), the “CT2, concentration doubling APTT” value is 2.3 µM.

Turning to `COc1cn([C@H](CCOC2CCC2)C(=O)Nc2ccc(C(=O)O)cc2)c(=O)cc1-c1cc(Cl)ccc1C(C)=O` [Example 163, (R)-4-(2-(4-(2-acetyl-5-chlorophenyl)-5-methoxy-2-oxopyridin-1 (2H)-yl)-4-cyclobutoxybutanamido)benzoic acid], the “CT2, concentration doubling APTT” value in the experiment with human blood (Table 2) was over 10000 µM. The compound also registered an IC50 in experiment [1] of 9110 nM.

As for `[2H]C([2H])([2H])C(=O)c1ccc(Cl)cc1-c1cc(=O)n([C@@H](Cc2ccccc2)C(=O)Nc2ccc(C(=O)O)cc2)cc1OC` [Example 183, 4-[[(2S)-2-[4-[5-chloro-2-(2,2,2-trideuteroacetyl)phenyl]-5-methoxy-2-oxo-1-pyridyl]-3-phenyl-propionyl]amino]benzoic acid], the “CT2, concentration doubling APTT” value in the experiment with human blood (Table 2) is 2.6 µM.

As to `[2H]C([2H])([2H])Oc1cn([C@@H](CCOC(C)(C)C)C(=O)Nc2ccc(C(=O)O)cc2)c(=O)cc1-c1cc(Cl)ccc1C(=O)CC` [Example 177, 4-[[(2S)-4-tert-butoxy-2-[4-(5-chloro-2-propionyl-phenyl)-2-oxo-5-(trideuteromethoxy)-1-pyridyl]butyryl]amino]benzoic acid], the “CT2, concentration doubling APTT” value with human blood (Table 2) worked out at 1.5 µM.

Take `COc1cn([C@H](Cc2ccccc2)C(=O)Nc2ccc(C(=O)O)cc2)c(=O)cc1-c1cc(Cl)ccc1C(C)=O` [Example 6, (R)-4-(2-(4-(2-acetyl-5-chlorophenyl)-5-methoxy-2-oxopyridin-1(2H)-yl)-3-phenylpropanamido)benzoic acid]: in the experiment with human blood (Table 2), the “CT2, concentration doubling APTT” value is over 10000 µM.

Regarding `[2H]C([2H])([2H])C(=O)c1ccc(Cl)cc1-c1cc(=O)n([C@H](Cc2ccccc2)C(=O)Nc2ccc(C(=O)O)cc2)cc1OC` [Example 184, 4-[[(2R)-2-[4-[5-chloro-2-(2,2,2-trideuteroacetyl)phenyl]-5-methoxy-2-oxo-1-pyridyl]-3-phenyl-propionyl]amino]benzoic acid], the “CT2, concentration doubling APTT” value in the experiment with human blood (Table 2) is over 10000 µM.

Consider `CCC(=O)c1ccc(Cl)cc1-c1cc(=O)n([C@@H](Cc2ccn(C3CC3)n2)C(=O)Nc2ccc(C(=O)O)cc2)cc1OC` [Example 92, (S)-4-(2-(4-(5-chloro-2-propionylphenyl)-5-methoxy-2-oxopyridin-1 (2H)-yl)-3-(1-cyclopropyl-1H-pyrazol-3-yl)propanamido)benzoic acid], for which the “CT2, concentration doubling APTT” value in the experiment with human blood (Table 2) is 1.2 µM.

Regarding `[2H]C([2H])([2H])Oc1cn([C@H](Cc2ccccc2)C(=O)Nc2ccc(C(=O)O)cc2)c(=O)cc1-c1cc(Cl)ccc1C(C)=O` [Example 180, 4-[[(2R)-2-[4-(2-acetyl-5-chloro-phenyl)-2-oxo-5-(trideuteromethoxy)-1-pyridyl]-3-phenyl-propionyl]amino]benzoic acid], the “CT2, concentration doubling APTT” value in the experiment on human blood (Table 2) was over 10000 µM.

Take `CCC(=O)c1ccc(Cl)cc1-c1cc(=O)n(C(Cc2ccn(C3CC3)n2)C(=O)Nc2ccc(C(=O)O)cc2)cc1OC` (stereo not drawn) [Example 91, 4-(2-(4-(5-chloro-2-propionylphenyl)-5-methoxy-2-oxopyridin-1 (2H)-yl)-3-(1-cyclopropyl-1H-pyrazol-3-yl)propanamido)benzoic acid]: the “CT2, concentration doubling APTT” value in the experiment on human blood (Table 2) was 2.1 µM.

Consider `[2H]C([2H])([2H])Oc1cn([C@H](CCOC(C)(C)C)C(=O)Nc2ccc(C(=O)O)cc2)c(=O)cc1-c1cc(Cl)ccc1C(=O)CC` [Example 178, 4-[[(2R)-4-tert-butoxy-2-[4-(5-chloro-2-propionyl-phenyl)-2-oxo-5-(trideuteromethoxy)-1-pyridyl]butyryl]amino]benzoic acid], for which the “CT2, concentration doubling APTT” value with human blood (Table 2) is over 10000 µM.
